Assay results published in patent publication US20090325891A1, “Cartilage regeneration-promoting agent” (EISAI FOOD & CHEMICAL CO., LTD., priority 2006, published 2009).
“Also recorded” adds a separate entry of the source.

Experiments:
[1] = tested on: articular cartilage injury of the knee in rabbits; assay: Histopathological examination (hematoxylin/eosin) of injured knee articular cartilage; type: in vivo, rabbit; settings: hematoxylin/eosin staining
Experimental: (§1) The rabbit articular cartilage injury model was prepared based on the method of Hashida et. al. (See, Macromolecular Bioscience, 3, (2003) 596-603), and Tamai et. al. (See, Carbohydrate Polymers, 48, (2002) 369-378, and Carbohydrate Polymers, 54, (2003) 251-262).
(§2) Initially, each animal was anesthetized by injecting pentobarbital sodium (40 mg/kg) intraperitoneally. Next, hairs at the knee joint of the left hind limb of the animal were clipped and disinfected with 0.5% chlorhexidine gluconate solution and 70% ethanol solution. Then, an incision was made on the skin on the lateral portion of the knee joint from the central part of the femur toward the tibial tuberosity. The articular capsule was exposed and incised. Further, the knee joint was exposed completely by dislocating the patella toward the medial side. Three holes of 2 mm size in diameter and 4 mm in depth were made by using a handdrill one at the medial trochlear ridge and two at the trochlear sulcus of the femur. The incised portion was washed with sterile saline solution and the articular capsule, and at the same time, the subcutaneous tissues and the skin were sutured with a synthetic absorbent thread and with nylon thread, respectively. During one week after the operation, the sutured portion of the skin was disinfected by povidone-iodine once a day and 10 mg/kg of oxytetracycline hydrochloride was subcutaneously administered twice a day.
(§3) After the formation of injury to articular cartilage, for the HT group, the product containing 20% by mass of hydroxytyrosol obtained in Production Example 1 was dissolved in tap water and administered using a water bottle at a rate of 500 mg/kg (100 mg/kg of hydroxytyrosol) per day for 21 days. After making sure that all of the water containing the drug was taken in, rabbits were fed with sterile tap water. The control was fed with sterile tap water ad libitum.
For each animal, femur was collected and fixed by a 10% neutral buffered forrnalin solution. […]

[2] = tested on: articular cartilage injury of the knee in rabbits; assay: Macroscopic degree of healing in rabbit articular cartilage injury model; type: in vivo; settings: for Degree of healing Distal trochlear sulcus / Degree of healing Medial trochlear ridge / Degree of healing Proximal trochlear sulcus: individual rabbits, 3 weeks after operation; for average value of quantified data (degree of healing, points): − = 0 to +++ = 3 points
Experimental: The cartilage regeneration-promoting effect of hydroxytyrosol obtained in Production Example 1 was investigated using a rabbit articular cartilage injury model prepared experimentally.
Six female and six male rabbits (New Zealand white, 16 weeks old when introduced, body weight: from 2.00 kg to 2.55 kg) were habituated for one week under the conditions of one rabbit per cage, temperature: from 23° C. to 25° C., relative humidity: from 50% to 60%, a light/dark cycle of 12 h, 12 times air changes per hour). During this period, animals were fed with feed, which is sold commercially, and sterile tap water ad libitum.
After the period, rabbits were divided at random into two groups so that each group contains three female and three male rabbits. One group was designated as a control group and the other as a hydroxytyrosol administration group (hereinafter, HT group).
as §1, §2, §3
After the experimental period, all animals were euthanized by overdose using an intravenous injection of pentobarbital sodium (80 mg/kg). Then, knee joints were incised, and the conditions of joint cartilages were macroscopically observed. The degree, to which the injury of cartilage was healed, was evaluated based on the following standards.
• −: Degree of healing is less than 50% • +: Degree of healing is from 50% to 60% • ++: Degree of healing is from 60% to 80% • +++: Degree of healing is from 80% to 100%
Further, the above evaluation was assigned numbers: (−) was assigned with 0 point (+) was assigned with 1 point, (++) was assigned with 2 points, and (+++) was assigned with 3 points. The degree of healing of articular cartilage was expressed numerically, and Mann-Whitney's U test was performed between the control group and the HT group.
In the same way as in Example 1, the cartilage regeneration-promoting effects were investigated with respect to hydroxytyrosol (100 mg/kg per day, HT group) and with respect to glucosamine hydrochloride (800 mg/kg per day, hereinafter, GAH group) for comparison. The control group was set in the same way as in Example 1.

Rabbit chondrocytes = assay: Hyaluronic acid production in rabbit chondrocytes; type: cell-based; settings: culture supernatant, per number of viable cells; 12 days culture; hydroxytyrosol 100 ng/ml, glucosamine hydrochloride 4 μg/ml
Experimental: The promoting effects of hydroxytyrosol and glucosamine hydrochloride on the production of glycosaminoglycan and on the production of hyaluronic acid in chondrocytes were evaluated. Rabbit chondrocytes (rabbit articular chondrocytes in primary culture, F-8, Cell Garage Co., Ltd.) were washed with phosphate buffered saline solution, and then cells were released with 0.05% trypsin-EDTA solution. The released chondrocytes were cultured in DMEM medium containing 10% FBS, 100 U/ml penicillin, 100 μg/ml streptomycin, 100 μM trisodium ascorbyl-2-phosphate (available from SIGMA-ALDRICH Corp.), and 25 mM HEPES (available from Invitrogen Corporation) at 37° C. in a humidified condition with 5% CO2. […] For each group after 12 days culture, the number of viable cells was determined by WST assay. The percentage of the amount of glycosaminoglycan or hyaluronic acid produced by each experimental group, relative to the control group, was calculated according to the following formula: ((amount produced by each experimental group/number of cells of each experimental group)×100)/(amount produced by the control group/number of cells of the control group). The supernatant of cultured cells of each group was collected, and the amount of hyaluronic acid produced was measured using a measurement kit (hyaluronic acid measurement kit, available from Seikagaku Corporation).

[3] = Example 2, HT 100 mg/kg per day, GAH 800 mg/kg per day, hydrochloride, female rabbits
[4] = Example 2, HT 100 mg/kg per day, GAH 800 mg/kg per day, hydrochloride, male rabbits
[5] = Example 1, 100 mg/kg of hydroxytyrosol per day for 21 days, 100 mg/kg
[6] = Example 2, HT 100 mg/kg per day, GAH 800 mg/kg per day, female rabbits
[7] = Example 2, HT 100 mg/kg per day, GAH 800 mg/kg per day, male rabbits

Cl.N[C@H]1C(O)O[C@H](CO)[C@@H](O)[C@@H]1O (some centres unmarked) [GAH group, glucosamine hydrochloride, reference compound]
histopathological findings at the site at which injury was created ([1]; Example 2): almost the same findings as those of the HT group
cartilage healing / regeneration compared with the control group ([2]; Example 2, HT p<0.01, GAH p<0.05, hydrochloride): promoted significantly
cartilage healing / regeneration compared with the control group ([2]; Example 2, HT p<0.01, GAH p<0.05, listed as glucosamine hydrochloride, hydrochloride): promoted the regeneration of cartilage
Degree of healing Distal trochlear sulcus [2, 3]: ++ (Degree of healing is from 60% to 80%); also recorded: +++ (Degree of healing is from 80% to 100%)
Degree of healing Medial trochlear ridge [2, 3]: +++ (Degree of healing is from 80% to 100%)
Degree of healing Proximal trochlear sulcus [2, 3]: ++ (Degree of healing is from 60% to 80%); also recorded: +++ (Degree of healing is from 80% to 100%)
Degree of healing Distal trochlear sulcus [2, 4]: ++ (Degree of healing is from 60% to 80%); also recorded: + (Degree of healing is from 50% to 60%)
Degree of healing Medial trochlear ridge [2, 4]: +++ (Degree of healing is from 80% to 100%); also recorded: ++ (Degree of healing is from 60% to 80%)
Degree of healing Proximal trochlear sulcus [2, 4]: + (Degree of healing is from 50% to 60%); also recorded: +++ (Degree of healing is from 80% to 100%)
average value of quantified data (degree of healing, points) ([2]; Example 2, control group 5.33): 7.17
amount of hyaluronic acid produced compared to the control group (Rabbit chondrocytes): 127.4%

OCCc1ccc(O)c(O)c1 [HT group, 2-(3,4-Dihydroxyphenyl)ethanol]
histopathological findings at the site at which injury was created ([1]; Example 1): matured chondrocytes were found extensively
histopathological findings at the site at which injury was created ([1]; Example 2): matured chondrocytes were found extensively
cartilage healing / regeneration compared with the control group ([2]; Example 1, Mann-Whitney's U test, p<0.05): promoted significantly
cartilage healing / regeneration compared with the control group ([2]; Example 1, Mann-Whitney's U test, p<0.05, listed as hydroxytyrosol): promoted the regeneration of cartilage
Degree of healing Distal trochlear sulcus [2, 5]: +++ (Degree of healing is from 80% to 100%); also recorded: + (Degree of healing is from 50% to 60%); also recorded: ++ (Degree of healing is from 60% to 80%)
Degree of healing Proximal trochlear sulcus [2, 5]: ++ (Degree of healing is from 60% to 80%); also recorded: +++ (Degree of healing is from 80% to 100%); also recorded: + (Degree of healing is from 50% to 60%)
Degree of healing Medial trochlear ridge ([2]; Example 1, 100 mg/kg of hydroxytyrosol per day in drinking water for 21 days, 100 mg/kg): +++ (Degree of healing is from 80% to 100%); also recorded: ++ (Degree of healing is from 60% to 80%); also recorded: + (Degree of healing is from 50% to 60%)
average value of quantified data (degree of healing, points) ([2]; Example 1, control group 4.83): 7.17
cartilage healing / regeneration compared with the control group ([2]; Example 2, HT p<0.01, GAH p<0.05): promoted significantly
cartilage healing / regeneration compared with the control group ([2]; Example 2, HT p<0.01, GAH p<0.05, listed as hydroxytyrosol): promoted the regeneration of cartilage
Degree of healing Distal trochlear sulcus [2, 6]: +++ (Degree of healing is from 80% to 100%)
Degree of healing Medial trochlear ridge [2, 6]: +++ (Degree of healing is from 80% to 100%)
Degree of healing Proximal trochlear sulcus [2, 6]: +++ (Degree of healing is from 80% to 100%); also recorded: ++ (Degree of healing is from 60% to 80%)
Degree of healing Distal trochlear sulcus [2, 7]: +++ (Degree of healing is from 80% to 100%)
Degree of healing Medial trochlear ridge [2, 7]: ++ (Degree of healing is from 60% to 80%); also recorded: +++ (Degree of healing is from 80% to 100%)
Degree of healing Proximal trochlear sulcus [2, 7]: ++ (Degree of healing is from 60% to 80%); also recorded: +++ (Degree of healing is from 80% to 100%)
average value of quantified data (degree of healing, points) ([2]; Example 2, control group 5.33): 8.17
amount of hyaluronic acid produced compared to the control group (Rabbit chondrocytes): 82.9%
